According to ChEMBL document CHEMBL1201862, “PubChem BioAssay data set” (2004):
Active and inactive are the calls of the source.

What was measured:
[1] = target: T1, Corticotropin-releasing factor receptor 2/Corticotropin-releasing factor-binding protein (Homo sapiens, UniProt P24387+Q13324); assay: activators of CRF receptor 2 with binding protein – uHTS hits, confirmation (AID 602473); type: functional; conditions: read-out: EC50_Mean
T1 sequence (Q13324 whole entry): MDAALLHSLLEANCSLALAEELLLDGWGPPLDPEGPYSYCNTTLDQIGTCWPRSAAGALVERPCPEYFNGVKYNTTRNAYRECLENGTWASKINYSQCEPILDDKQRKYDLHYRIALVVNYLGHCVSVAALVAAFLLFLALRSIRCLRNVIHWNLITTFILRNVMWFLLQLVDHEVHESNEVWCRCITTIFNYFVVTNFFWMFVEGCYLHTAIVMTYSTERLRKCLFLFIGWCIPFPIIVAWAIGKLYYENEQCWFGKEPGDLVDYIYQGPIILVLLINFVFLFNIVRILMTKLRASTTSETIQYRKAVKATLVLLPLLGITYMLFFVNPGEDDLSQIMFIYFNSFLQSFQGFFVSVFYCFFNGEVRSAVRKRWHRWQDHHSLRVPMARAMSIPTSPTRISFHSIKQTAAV
T1 sequence (P24387 whole entry): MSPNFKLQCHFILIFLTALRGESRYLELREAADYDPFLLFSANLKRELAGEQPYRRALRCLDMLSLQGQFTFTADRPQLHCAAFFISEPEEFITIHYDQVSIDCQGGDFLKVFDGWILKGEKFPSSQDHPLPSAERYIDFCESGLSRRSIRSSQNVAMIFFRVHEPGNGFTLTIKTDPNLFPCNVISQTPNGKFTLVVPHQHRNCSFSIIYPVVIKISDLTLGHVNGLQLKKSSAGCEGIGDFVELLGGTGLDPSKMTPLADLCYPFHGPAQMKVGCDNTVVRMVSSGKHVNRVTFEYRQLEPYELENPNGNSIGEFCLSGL

[2] = target: T1, Corticotropin-releasing factor receptor 2/Corticotropin-releasing factor-binding protein; assay: Dose Response confirmation of uHTS hits for small molecule antagonists of the CRF-binding protein and CRF-R2 receptor complex.; type: functional; conditions: read-out: IC50_Mean
Large T antigen = Large T antigen (Simian virus 40, UniProt P03070); type: functional, Betapolyomavirus macacae;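 note: Confirmatory-stage PubChem screen for compounds that inhibit SV40 T antigen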
Chain of Large T antigen (P03070 whole entry): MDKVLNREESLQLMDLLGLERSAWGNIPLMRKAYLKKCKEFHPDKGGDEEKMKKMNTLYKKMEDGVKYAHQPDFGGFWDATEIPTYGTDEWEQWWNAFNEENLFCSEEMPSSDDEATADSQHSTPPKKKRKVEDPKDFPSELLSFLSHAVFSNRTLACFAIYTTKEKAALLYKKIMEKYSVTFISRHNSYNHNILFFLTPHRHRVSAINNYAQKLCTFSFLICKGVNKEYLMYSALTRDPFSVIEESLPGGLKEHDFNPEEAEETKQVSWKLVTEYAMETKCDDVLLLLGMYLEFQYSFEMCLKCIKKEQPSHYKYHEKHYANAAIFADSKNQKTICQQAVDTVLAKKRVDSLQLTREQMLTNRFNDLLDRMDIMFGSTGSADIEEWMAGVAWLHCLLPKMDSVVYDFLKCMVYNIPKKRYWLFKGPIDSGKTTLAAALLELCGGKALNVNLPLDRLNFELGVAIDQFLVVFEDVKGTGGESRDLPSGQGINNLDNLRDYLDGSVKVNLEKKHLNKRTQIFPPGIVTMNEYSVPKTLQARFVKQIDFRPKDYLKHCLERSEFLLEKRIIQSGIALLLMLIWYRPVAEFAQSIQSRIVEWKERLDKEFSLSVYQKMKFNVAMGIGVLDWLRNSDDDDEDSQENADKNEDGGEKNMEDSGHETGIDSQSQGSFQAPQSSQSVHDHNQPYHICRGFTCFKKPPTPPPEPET

Cytochrome P450 1A2 = target: T2, Cytochrome P450 1A2 (Homo sapiens, UniProt P05177);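 note: PubChem cytochrome P450 panel assay, CYP1A2 panel member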
T2 sequence (P05177 whole entry): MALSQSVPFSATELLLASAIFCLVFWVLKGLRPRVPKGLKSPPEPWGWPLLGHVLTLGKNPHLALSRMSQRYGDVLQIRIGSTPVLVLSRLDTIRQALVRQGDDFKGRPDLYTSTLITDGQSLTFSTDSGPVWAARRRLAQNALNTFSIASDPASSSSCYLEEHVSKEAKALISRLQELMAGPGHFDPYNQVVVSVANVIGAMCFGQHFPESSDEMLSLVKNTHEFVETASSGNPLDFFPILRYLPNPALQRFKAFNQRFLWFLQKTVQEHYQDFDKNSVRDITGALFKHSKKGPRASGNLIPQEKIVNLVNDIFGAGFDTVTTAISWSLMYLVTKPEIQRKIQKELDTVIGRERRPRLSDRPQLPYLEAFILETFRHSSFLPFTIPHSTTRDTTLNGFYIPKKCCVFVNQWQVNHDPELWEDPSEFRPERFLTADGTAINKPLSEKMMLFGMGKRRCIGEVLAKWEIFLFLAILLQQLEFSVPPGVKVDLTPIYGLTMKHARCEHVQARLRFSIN

[3] = target: T3, Heat shock factor protein 1 (Mus musculus, UniProt P38532); assay: enhancement of HSF1-driven luciferase signal – cell-based, NIH3T3, luminescence, dose retest, confirmation (AID 435004); type: functional;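 note: stress induced by proteasome inhibitor MG132 added 30 min after compound; luciferase reporter driven by HSF1 response element in NIH3T3 cells; actives raise luminescence as potentiators of the MG132 stress response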
T3 sequence (P38532 whole entry): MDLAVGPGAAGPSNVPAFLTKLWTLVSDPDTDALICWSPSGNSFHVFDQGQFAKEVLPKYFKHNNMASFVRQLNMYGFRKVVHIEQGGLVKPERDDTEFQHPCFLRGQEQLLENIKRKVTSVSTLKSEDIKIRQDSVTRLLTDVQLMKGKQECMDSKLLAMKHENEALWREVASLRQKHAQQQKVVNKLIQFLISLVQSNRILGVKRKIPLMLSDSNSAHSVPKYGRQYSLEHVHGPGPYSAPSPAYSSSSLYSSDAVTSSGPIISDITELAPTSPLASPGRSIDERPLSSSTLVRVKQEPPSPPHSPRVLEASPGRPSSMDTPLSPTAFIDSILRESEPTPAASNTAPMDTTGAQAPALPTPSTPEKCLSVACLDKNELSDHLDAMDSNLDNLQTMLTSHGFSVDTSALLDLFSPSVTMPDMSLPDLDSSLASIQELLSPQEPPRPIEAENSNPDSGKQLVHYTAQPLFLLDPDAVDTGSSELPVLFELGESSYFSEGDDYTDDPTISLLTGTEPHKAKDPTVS

[4] = reduction of Shn3 3'UTR-driven luciferase in osteoblasts – cell-based, Clone20 osteoblasts, firefly luciferase, cherry-picked, dose response (AID 624132); type: functional;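 note: firefly luciferase luminescence from reporter carrying the Shn3 3'UTR in osteoblasts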
[5] = non-specific 3'UTR reporter inhibition in Clone20-Shn3RL – cell-based, Renilla luciferase, cherry-picked, counter-screen for Shn3 inhibitor project, dose response (AID 624133); type: functional
Cytochrome P450 2C9 = Cytochrome P450 2C9 (Homo sapiens, UniProt P11712)
Chain of Cytochrome P450 2C9 (P11712 whole entry): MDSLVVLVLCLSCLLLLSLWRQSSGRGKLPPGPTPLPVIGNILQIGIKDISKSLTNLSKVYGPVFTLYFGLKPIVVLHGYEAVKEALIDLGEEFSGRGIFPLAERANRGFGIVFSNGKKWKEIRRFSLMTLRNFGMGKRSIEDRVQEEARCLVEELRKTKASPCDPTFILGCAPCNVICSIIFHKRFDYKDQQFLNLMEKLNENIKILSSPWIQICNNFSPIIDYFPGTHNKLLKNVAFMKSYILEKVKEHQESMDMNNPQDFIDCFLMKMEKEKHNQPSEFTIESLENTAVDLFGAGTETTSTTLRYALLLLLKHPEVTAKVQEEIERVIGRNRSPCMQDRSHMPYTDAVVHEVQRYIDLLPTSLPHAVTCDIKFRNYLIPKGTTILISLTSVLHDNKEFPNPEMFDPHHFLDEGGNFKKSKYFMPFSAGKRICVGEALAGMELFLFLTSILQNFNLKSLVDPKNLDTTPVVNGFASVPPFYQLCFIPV

Cytochrome P450 3A4 = Cytochrome P450 3A4 (Homo sapiens, UniProt P08684);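 note: CYP3A4 tested as one member of a cytochrome P450 panel screen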
Chain of Cytochrome P450 3A4 (P08684 whole entry): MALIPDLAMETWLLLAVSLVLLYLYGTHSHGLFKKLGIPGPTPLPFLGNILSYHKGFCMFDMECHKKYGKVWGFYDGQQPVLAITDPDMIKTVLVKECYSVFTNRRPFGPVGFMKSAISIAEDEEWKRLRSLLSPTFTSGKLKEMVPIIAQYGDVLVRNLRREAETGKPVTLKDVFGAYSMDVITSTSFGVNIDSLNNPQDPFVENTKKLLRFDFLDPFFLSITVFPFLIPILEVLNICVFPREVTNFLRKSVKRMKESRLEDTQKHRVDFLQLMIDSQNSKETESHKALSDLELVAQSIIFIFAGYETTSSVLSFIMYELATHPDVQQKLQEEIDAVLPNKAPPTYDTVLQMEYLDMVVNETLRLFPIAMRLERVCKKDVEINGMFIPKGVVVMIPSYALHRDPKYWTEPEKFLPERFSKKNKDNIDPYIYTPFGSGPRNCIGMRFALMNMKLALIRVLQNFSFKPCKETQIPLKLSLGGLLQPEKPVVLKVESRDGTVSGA

Cytochrome P450 2C19 = Cytochrome P450 2C19 (Homo sapiens, UniProt P33261); assay: Cytochrome panel assay with activity outcomes. Panel member name: p450-cyp2c19 Compounds with AC50 equal or less than 10 uM are considered active; type: functional; conditions: read-out: AC50
Chain of Cytochrome P450 2C19 (P33261 whole entry): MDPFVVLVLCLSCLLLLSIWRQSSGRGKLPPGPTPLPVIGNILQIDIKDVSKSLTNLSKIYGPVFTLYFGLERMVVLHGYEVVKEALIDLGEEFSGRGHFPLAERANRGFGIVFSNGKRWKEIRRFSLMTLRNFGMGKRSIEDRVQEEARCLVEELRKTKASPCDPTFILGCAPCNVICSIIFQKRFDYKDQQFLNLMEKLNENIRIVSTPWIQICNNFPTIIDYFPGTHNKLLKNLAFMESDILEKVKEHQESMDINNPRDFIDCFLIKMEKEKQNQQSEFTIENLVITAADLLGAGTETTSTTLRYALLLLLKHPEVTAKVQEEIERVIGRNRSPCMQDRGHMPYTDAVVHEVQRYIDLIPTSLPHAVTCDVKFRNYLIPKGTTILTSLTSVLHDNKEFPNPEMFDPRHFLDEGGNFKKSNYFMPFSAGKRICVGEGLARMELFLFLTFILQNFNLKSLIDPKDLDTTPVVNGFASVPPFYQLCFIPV

[6] = target: T4, Rac GTPase-activating protein 1 (Homo sapiens, UniProt Q9H0H5); assay: blockers of MgcRacGAP-driven Rac1 GTP hydrolysis – biochemical, ADP Hunter fluorescence, primary and confirmatory, confirmation (AID 624330); type: functional
T4 sequence (Q9H0H5 whole entry): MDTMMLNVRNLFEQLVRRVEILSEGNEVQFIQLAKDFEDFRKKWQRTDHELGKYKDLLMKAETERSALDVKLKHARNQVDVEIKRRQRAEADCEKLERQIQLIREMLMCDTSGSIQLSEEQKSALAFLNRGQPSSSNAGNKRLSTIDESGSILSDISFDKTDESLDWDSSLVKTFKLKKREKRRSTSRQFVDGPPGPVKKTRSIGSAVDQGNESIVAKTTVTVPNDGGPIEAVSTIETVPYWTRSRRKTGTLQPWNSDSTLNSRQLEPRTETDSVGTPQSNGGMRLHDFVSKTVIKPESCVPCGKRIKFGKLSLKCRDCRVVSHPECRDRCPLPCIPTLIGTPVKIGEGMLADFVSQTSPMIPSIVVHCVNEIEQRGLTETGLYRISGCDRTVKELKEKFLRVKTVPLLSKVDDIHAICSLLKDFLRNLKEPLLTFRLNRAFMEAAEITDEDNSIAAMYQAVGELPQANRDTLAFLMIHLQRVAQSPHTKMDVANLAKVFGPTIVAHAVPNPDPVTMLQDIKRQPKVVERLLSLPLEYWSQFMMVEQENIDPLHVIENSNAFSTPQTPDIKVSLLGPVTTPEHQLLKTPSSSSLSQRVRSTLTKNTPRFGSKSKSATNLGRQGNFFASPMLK

[7] = target: T5, Replicative DNA helicase DnaB (Mycobacterium tuberculosis, UniProt P9WMR3); assay: DnaB intein splicing inhibitors, dose response, biochemical, cell-free fluorescence (AID 449749); type: functional
T5 sequence (P9WMR3 whole entry): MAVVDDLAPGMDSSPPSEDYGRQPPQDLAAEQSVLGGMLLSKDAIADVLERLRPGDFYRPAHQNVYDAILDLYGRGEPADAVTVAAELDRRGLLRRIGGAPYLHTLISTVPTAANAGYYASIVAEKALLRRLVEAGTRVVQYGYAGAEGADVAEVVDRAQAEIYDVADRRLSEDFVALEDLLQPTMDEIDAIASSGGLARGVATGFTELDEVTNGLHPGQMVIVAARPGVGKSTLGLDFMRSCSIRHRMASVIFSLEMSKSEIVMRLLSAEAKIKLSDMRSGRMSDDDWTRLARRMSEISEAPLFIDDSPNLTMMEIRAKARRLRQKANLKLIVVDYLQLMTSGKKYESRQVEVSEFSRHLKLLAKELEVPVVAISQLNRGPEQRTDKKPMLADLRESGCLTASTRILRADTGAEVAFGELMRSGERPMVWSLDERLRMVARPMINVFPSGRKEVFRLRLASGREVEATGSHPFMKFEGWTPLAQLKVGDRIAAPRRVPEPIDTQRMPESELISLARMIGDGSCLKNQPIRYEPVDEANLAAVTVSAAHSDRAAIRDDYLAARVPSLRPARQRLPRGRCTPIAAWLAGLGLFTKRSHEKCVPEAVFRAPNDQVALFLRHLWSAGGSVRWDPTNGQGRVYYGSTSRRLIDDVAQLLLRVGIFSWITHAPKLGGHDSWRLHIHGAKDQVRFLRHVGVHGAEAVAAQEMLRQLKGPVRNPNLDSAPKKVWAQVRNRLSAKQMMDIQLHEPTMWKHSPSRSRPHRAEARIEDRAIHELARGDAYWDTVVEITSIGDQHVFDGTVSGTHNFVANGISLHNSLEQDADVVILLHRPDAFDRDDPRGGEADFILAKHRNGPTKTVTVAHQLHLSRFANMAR

Protein RecA = target: T6, Protein RecA (Mycobacterium tuberculosis, UniProt P9WHJ3); assay: Fluorescence Cell-Free Homogeneous Dose Retest to Identify Inhibitors of RecA-Intein Splicing Activity. [Related pubchem assays (depositor defined):AID2097, AID2223, AID489010, AID492950]; type: functional
T6 sequence (P9WHJ3 whole entry): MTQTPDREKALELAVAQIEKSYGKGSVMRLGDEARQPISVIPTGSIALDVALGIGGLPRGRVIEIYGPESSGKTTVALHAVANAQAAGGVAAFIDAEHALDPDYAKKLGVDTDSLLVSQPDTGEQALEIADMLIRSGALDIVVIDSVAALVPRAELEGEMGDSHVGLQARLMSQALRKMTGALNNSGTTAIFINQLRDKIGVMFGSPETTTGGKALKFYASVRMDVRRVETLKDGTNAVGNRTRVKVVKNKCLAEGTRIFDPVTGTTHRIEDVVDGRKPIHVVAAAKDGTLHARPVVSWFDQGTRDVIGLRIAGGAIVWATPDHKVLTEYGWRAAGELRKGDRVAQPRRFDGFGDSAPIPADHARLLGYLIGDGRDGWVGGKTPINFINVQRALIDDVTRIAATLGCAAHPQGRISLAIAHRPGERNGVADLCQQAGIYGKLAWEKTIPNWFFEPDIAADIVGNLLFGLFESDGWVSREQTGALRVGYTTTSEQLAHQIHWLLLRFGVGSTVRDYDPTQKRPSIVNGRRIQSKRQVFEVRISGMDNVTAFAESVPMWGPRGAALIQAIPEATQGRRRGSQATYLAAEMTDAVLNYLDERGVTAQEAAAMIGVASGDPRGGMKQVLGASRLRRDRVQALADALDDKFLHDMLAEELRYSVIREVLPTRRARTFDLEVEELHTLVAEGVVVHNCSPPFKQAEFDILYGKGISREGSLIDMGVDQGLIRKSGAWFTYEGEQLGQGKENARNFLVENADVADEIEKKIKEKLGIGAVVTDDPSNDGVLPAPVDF

| Compound | EC50 [1] | IC50 [2] | AC50 (Cytochrome P450 1A2) | further results |
| --- | --- | --- | --- | --- |
| CCc1nnc(NC(=O)CCC(=O)N2CCN(Cc3cc(Cl)ccc3OC)CC2)s1 | > 53 µM (inactive) | > 47.1 µM (inactive) |  |  |
| COc1cccc(CNC(=O)CN(c2ccc(C(C)C)cc2)S(=O)(=O)c2c(C)noc2C)c1 | > 53 µM (inactive) | > 47.1 µM (inactive) |  |  |
| Cc1ccc2oc(=O)c(/C=C(\O)C(C)(C)C)nc2c1 |  |  |  | IC50 (Large T antigen): 11 µM (active) |
| CCOC(=O)Cc1csc(NC(=O)c2c(-c3c(Cl)cccc3Cl)noc2C)n1 |  |  | 14.1 µM (inconclusive) |  |
| Cc1cc(NC(=O)c2nn(C)c(C)c2[N+](=O)[O-])no1 |  |  | 25.1 µM (inconclusive) |  |
| Fc1ccc(C2c3cccn3CCN2C(S)=Nc2cccc(F)c2)cc1 (stereo not given) | > 53 µM (inactive) | > 47.1 µM (inactive) |  |  |
| Cc1nc2ccccc2nc(C)c1=NOCc1ccccc1Cl | > 53 µM (inactive) | > 47.1 µM (inactive) |  | EC50 [3]: > 260 µM (inactive) |
| COc1ccc(S(=O)(=O)N2CCN(c3cc(-c4ccccc4)nc4ncnn34)CC2)cc1 |  |  |  | AC50 [4]: 3.89 µM (active); AC50 [5]: 1.6 µM (active) |
| COc1ccc(-c2nc3cnc(Nc4ccccc4)nc3n(Cc3cccs3)c2=O)cc1 |  |  | 25.1 µM (inconclusive) | AC50 (Cytochrome P450 2C9): 12.6 µM (inconclusive) |
| CC(C)CCNC(=O)C12CN(Cc3ccccc3)CC1C(c1cccc([N+](=O)[O-])c1)=NO2 (stereo not given) |  |  | 14.1 µM (inconclusive) |  |
| COc1ccc(-c2nc3cnc(N4CCOCC4)nc3n(CCC#N)c2=O)cc1 |  |  | 3.16 µM (inconclusive) |  |
| N#Cc1ccc(S(=O)(=O)N2CCN(C(=O)[C@@H]3CCCN3C(=O)c3cccs3)CC2)cc1 | > 53 µM (inactive) | > 47.1 µM (inactive) |  |  |
| CCN(CC)c1ccc(NC(=O)CSc2nnc3nc(C)cc(C)n23)cc1 |  |  |  | IC50 (Large T antigen): 19.8 µM (active); AC50 (Cytochrome P450 3A4): 39.8 µM (inconclusive); AC50 (Cytochrome P450 2C19): 17.8 µM (inconclusive) |
| C[C@@H](CCC(=O)O)C(=O)O |  |  | 6.31 µM (inconclusive) |  |
| O=C(NCCO)c1nc(C(=O)c2ccc(Cl)cc2)c2ccccc2n1 | > 53 µM (inactive) | > 47.1 µM (inactive) |  |  |
| CCCNC(=O)c1ccc(CN2CCc3ccccc3C2)cc1 | > 53 µM (inactive) | > 47.1 µM (inactive) |  |  |
| CC1C/C(=N\NC(=O)c2ccc([N+](=O)[O-])cc2)CC(C)(C)C1 (stereo not given) | > 53 µM (inactive) | > 47.1 µM (inactive) |  |  |
| Cn1cccc1/C=N/N1CCN(c2ccccn2)CC1 |  |  |  | IC50 [6]: 27.6 µM (active); IC50 (Large T antigen): 5.17 µM (active) |
| O=C(N/N=C/c1ccc(OC(=O)c2ccco2)cc1)c1ccc[n+]([O-])c1 |  |  |  | IC50 (Large T antigen): 55.5 µM (active); AC50 [7]: 24.6 µM (active); EC50 (Protein RecA): 24.6 µM (active) |
